Assay results taken from patent US12428406B2 (PMV Pharmaceuticals, Inc., priority 2019, dated 2025).

Molecular target: T1, p53 Y220C (Homo sapiens, UniProt P04637, Y220C)
T1 construct: The recombinant protein was a truncation mutant containing only amino acids 94-312 of p53; made in house; host or cells: E. coli
Experiment: In vitro DNA binding activity assay (HTRF / TR-FRET): stabilization of p53 Y220C and increase of its DNA binding activity
Format: biochemical
Conditions: recombinant His-tagged p53 Y220C DNA binding domain (aa 94-312), biotin-labeled consensus DNA, incubated at 27° C. or 29° C. for 60 min
In short: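 Compound effect on DNA binding of recombinant His-p53 Y220C (E. coli) to biotin-labeled consensus DNA, expressed as SC150, the concentration giving 50% increase versus untreated. Serial 3-fold DMSO dilutions of 4.5 mM stocks; room-temperature steps of 15 then 20 min.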

T1 sequence (P04637 94-312, change not shown): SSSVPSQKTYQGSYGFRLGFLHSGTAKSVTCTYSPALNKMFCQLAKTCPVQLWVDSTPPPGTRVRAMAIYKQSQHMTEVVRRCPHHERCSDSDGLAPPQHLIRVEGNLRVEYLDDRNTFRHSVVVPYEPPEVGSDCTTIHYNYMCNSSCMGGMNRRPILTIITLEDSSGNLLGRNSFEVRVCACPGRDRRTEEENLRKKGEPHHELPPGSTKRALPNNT

SC150 (concentration of the compound required to increase the DNA binding activity by 50%)	Compound
+ (+ = 0 μM ≤ SC150 < 0.05 μM)	CS(=O)(=O)c1ccc(NCC#Cc2cc3c(N[C@H]4CC[C@H](N5CC6(COC6)C5)CC4)cccc3n2CC(F)(F)F)c(O)c1 [Compound 214A, 5-methanesulfonyl-2-{[3-(4-{[(1R,4R)-4-{2-oxa-6-azaspiro[3.3]heptan-6-yl}cyclohexyl]amino}-1-(2,2,2-trifluoro-ethyl)-1H-indol-2-yl)prop-2-yn-1-yl]amino}phenol]
+ (+ = 0 μM ≤ SC150 < 0.05 μM)	CS(=O)(=O)c1ccc(NCC#Cc2cc3c(N[C@H]4CC[C@@H](N5CC6(COC6)C5)CC4)cccc3n2CC(F)(F)F)c(O)c1 [Compound 215A, 5-methanesulfonyl-2-{[3-(4-{[(1S,4S)-4-{2-oxa-6-azaspiro [3.3]heptan-6-yl}cyclo-hexyl]amino}-1-(2,2,2-trifluoroethyl)-1H-indol-2-yl)prop-2-yn-1-yl]amino}phenol]
++++ (++++ = 0.2 μM ≤ SC150 < 1 μM)	CC(C)C(=O)N(CC#Cc1cc2c(N[C@H]3CC[C@H](N4CC5(COC5)C4)CC3)cccc2n1CC(F)(F)F)c1ccc(S(C)(=O)=O)cc1O [Compound 218A, N-(2-hydroxy-4-methanesulfonylphenyl)-2-methyl-N-[3-(4-{[(1R,4R)-4-{2-oxa-6-azaspiro[3.3]heptan-6-yl}cyclohexyl]amino}-1-(2,2,2-trifluoroethyl)-1H-indol-2-yl)prop-2-yn-1-yl]propanamide]
+ (+ = 0 μM ≤ SC150 < 0.05 μM)	COCCOc1cc(S(C)(=O)=O)ccc1NCC#Cc1cc2c(N[C@H]3CC[C@H](N4CC5(COC5)C4)CC3)cccc2n1CC(F)(F)F [Compound 220A, 2-(3-{[4-methane-sulfonyl-2-(2-methoxyethoxy)phenyl]amino}prop-1-yn-1-yl)-N-[(1R,4R)-4-{2-oxa-6-azaspiro[3.3]heptan-6-yl}cyclohexyl]-1-(2,2,2-trifluoroethyl)-1H-indol-4-amine]
+ (+ = 0 μM ≤ SC150 < 0.05 μM)	COCCOc1cc(S(C)(=O)=O)ccc1NCC#Cc1cc2c(N[C@H]3CC[C@@H](N4CC5(COC5)C4)CC3)cccc2n1CC(F)(F)F [Compound 221A, 2-(3-{[4-methane-sulfonyl-2-(2-methoxyethoxy)phenyl]amino}prop-1-yn-1-yl)-N-[(1S,4S)-4-{2-oxa-6-azaspiro[3.3]heptan-6-yl}cyclohexyl]-1-(2,2,2-trifluoroethyl)-1H-indol-4-amine]
+ (+ = 0 μM ≤ SC150 < 0.05 μM)	CS(=O)(=O)c1ccc(NCC#Cc2cc3c(N[C@H]4CC[C@H](N5CC6(COC6)C5)CC4)cccc3n2CC(F)(F)F)c(OCC#N)c1 [Compound 222A, 2-(5-methanesulfonyl-2-{[3-(4-{[(1R,4R)-4-{2-oxa-6-azaspiro[3.3]heptan-6-yl}cyclo-hexyl]amino}-1-(2,2,2-trifluoroethyl)-1H-indol-2-yl)prop-2-yn-1-yl]amino}phenoxy) acetonitrile]
+ (+ = 0 μM ≤ SC150 < 0.05 μM)	CS(=O)(=O)c1ccc(NCC#Cc2cc3c(N[C@H]4CC[C@@H](N5CC6(COC6)C5)CC4)cccc3n2CC(F)(F)F)c(OCC#N)c1 [Compound 223A, 2-(5-methanesulfonyl-2-{[3-(4-{[(1S,4S)-4-{2-oxa-6-azaspiro[3.3]heptan-6-yl}cyclo-hexyl]amino}-1-(2,2,2-trifluoroethyl)-1H-indol-2-yl)prop-2-yn-1-yl]amino}phenoxy) acetonitrile]
+ (+ = 0 μM ≤ SC150 < 0.05 μM)	CC(C)C(=O)Oc1cc(S(C)(=O)=O)ccc1NCC#Cc1cc2c(N[C@H]3CC[C@@H](N4CC5(COC5)C4)CC3)cccc2n1CC(F)(F)F [Compound 224A, 5-methanesulfonyl-2-{[3-(4-{[(1S,4S)-4-{2-oxa-6-azaspiro[3.3]heptan-6-yl}cyclohexyl]amino}-1-(2,2,2-trifluoroethyl)-1H-indol-2-yl)prop-2-yn-1-yl]amino}phenyl 2-methylpropanoate]
+ (+ = 0 μM ≤ SC150 < 0.05 μM)	CS(=O)(=O)c1ccc(NCC#Cc2cc3c(N[C@H]4CC[C@H](N5CC6(COC6)C5)CC4)cccc3n2CC(F)(F)F)c(OCCO)c1 [Compound 225A, 2-(5-methanesulfonyl-2-{[3-(4-{[(1R,4R)-4-{2-oxa-6-azaspiro[3.3]heptan-6-yl}cyclo-hexyl]amino}-1-(2,2,2-trifluoroethyl)-1H-indol-2-yl)prop-2-yn-1-yl]amino}phenoxy)ethan-1-ol]
+ (+ = 0 μM ≤ SC150 < 0.05 μM)	CS(=O)(=O)c1ccc(NCC#Cc2cc3c(N[C@H]4CC[C@@H](N5CC6(COC6)C5)CC4)cccc3n2CC(F)(F)F)c(OCCO)c1 [Compound 226A, 2-(5-methanesulfonyl-2-{[3-(4-{[(1S,4S)-4-{2-oxa-6-azaspiro[3.3]heptan-6-yl}cyclo-hexyl]amino}-1-(2,2,2-trifluoroethyl)-1H-indol-2-yl)prop-2-yn-1-yl]amino}phenoxy)ethan-1-ol]
+ (+ = 0 μM ≤ SC150 < 0.05 μM)	CC(C)C(=O)Oc1cc(S(C)(=O)=O)ccc1NCC#Cc1cc2c(N[C@H]3CC[C@H](N4CC5(COC5)C4)CC3)cccc2n1CC(F)(F)F [Compound 228A, 5-methanesulfonyl-2-{[3-(4-{[(1R,4R)-4-{2-oxa-6-azaspiro[3.3]heptan-6-yl}cyclohexyl]amino}-1-(2,2,2-trifluoroethyl)-1H-indol-2-yl)prop-2-yn-1-yl]amino}phenyl 2-methylpropanoate]
+ (+ = 0 μM ≤ SC150 < 0.05 μM)	CNC(=O)c1ccc(NCC#Cc2cc3c(N[C@H]4CC[C@H](N5CC6(COC6)C5)CC4)cccc3n2CC(F)(F)F)c(OC)c1 [Compound 229A, 3-methoxy-N-methyl-4-{[3-(4-{[(1R,4R)-4-{2-oxa-6-azaspiro[3.3]heptan-6-yl}cyclohexyl]amino}-1-(2,2,2-trifluoroethyl)-1H-indol-2-yl)prop-2-yn-1-yl]amino}benzamide]
+ (+ = 0 μM ≤ SC150 < 0.05 μM)	CNC(=O)c1ccc(NCC#Cc2cc3c(N[C@H]4CC[C@@H](N5CC6(COC6)C5)CC4)cccc3n2CC(F)(F)F)c(OC)c1 [Compound 230A, 3-methoxy-N-methyl-4-{[3-(4-{[(1S,4S)-4-{2-oxa-6-azaspiro[3.3]heptan-6-yl}cyclo-hexyl]amino}-1-(2,2,2-trifluoroethyl)-1H-indol-2-yl)prop-2-yn-1-yl]amino}benzamide]
+ (+ = 0 μM ≤ SC150 < 0.05 μM)	CS(=O)(=O)c1ccc(NCC#Cc2cc3c(N[C@H]4CC[C@H](N5CC6(COC6)C5)CC4)cccc3n2CC(F)(F)F)c(OCC(F)(F)F)c1 [Compound 231A, 2-(3-{[4-methane-sulfonyl-2-(2,2,2-trifluoro-ethoxy)phenyl]amino}prop-1-yn-1-yl)-N-[(1R,4R)-4-{2-oxa-6-azaspiro[3.3]heptan-6-yl}cyclohexyl]-1-(2,2,2-trifluoroethyl)-1H-indol-4-amine]
+ (+ = 0 μM ≤ SC150 < 0.05 μM)	CS(=O)(=O)c1ccc(NCC#Cc2cc3c(N[C@H]4CC[C@@H](N5CC6(COC6)C5)CC4)cccc3n2CC(F)(F)F)c(OCC(F)(F)F)c1 [Compound 232A, 2-(3-{[4-methane-sulfonyl-2-(2,2,2-trifluoro-ethoxy)phenyl]amino}prop-1-yn-1-yl)-N-[(1S,4S)-4-{2-oxa-6-azaspiro[3.3]heptan-6-yl}cyclohexyl]-1-(2,2,2-trifluoroethyl)-1H-indol-4-amine]
++ (++ = 0.05 μM ≤ SC150 < 0.1 μM)	CS(=O)(=O)c1ccc(OCC#Cc2cc3c(N[C@H]4CC[C@@H](N5CC6(COC6)C5)CC4)cccc3n2CC(F)(F)F)c(N)c1 [Compound 233A, 2-[3-(2-amino-4-methanesulfonyl-phenoxy)prop-1-yn-1-yl]-N-[(1S,4S)-4-{2-oxa-6-azaspiro[3.3]heptan-6-yl}cyclohexyl]-1-(2,2,2-trifluoroethyl)-1H-indol-4-amine]
+ (+ = 0 μM ≤ SC150 < 0.05 μM)	CCOc1cc(S(C)(=O)=O)ccc1NCC#Cc1cc2c(N[C@H]3CC[C@H](N4CC5(COC5)C4)CC3)cccc2n1CC(F)(F)F [Compound 234A, 2-{3-[(2-ethoxy-4-methanesulfonylphenyl)amino]prop-1-yn-1-yl}-N-[(1R,4R)-4-{2-oxa-6-azaspiro[3.3]heptan-6-yl}cyclohexyl]-1-(2,2,2-trifluoroethyl)-1H-indol-4-amine]
+ (+ = 0 μM ≤ SC150 < 0.05 μM)	CCOc1cc(S(C)(=O)=O)ccc1NCC#Cc1cc2c(N[C@H]3CC[C@@H](N4CC5(COC5)C4)CC3)cccc2n1CC(F)(F)F [Compound 235A, 2-{3-[(2-ethoxy-4-methanesulfonyl-phenyl)amino]prop-1-yn-1-yl}-N-[(1S,4S)-4-{2-oxa-6-azaspiro[3.3]heptan-6-yl}cyclo-hexyl]-1-(2,2,2-trifluoroethyl)-1H-indol-4-amine]
+ (+ = 0 μM ≤ SC150 < 0.05 μM)	CNC(=O)c1ccc(NCC#Cc2cc3c(N[C@H]4CC[C@H](N5CC6(COC6)C5)CC4)cccc3n2CC(F)(F)F)c(OCCOC)c1 [Compound 236A, 3-(2-methoxyethoxy)-N-methyl-4-{[3-(4-{[(1R,4R)-4-{2-oxa-6-azaspiro[3.3]heptan-6-yl}cyclohexyl]amino}-1-(2,2,2-trifluoroethyl)-1H-indol-2-yl)prop-2-yn-1-yl]amino} benzamide]
